# ChEMBL document CHEMBL1201862, “PubChem BioAssay data set” (2004)
# Activity calls are given as the source filed them.
# Tests used:
# [1] = ADAM10 inhibitors, peptide cleavage, dose response, biochemical, QFRET (AID 743254);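 also: ADAM10 enzyme with the DM2 quenched FRET peptide as substrate; EDANS fluorescence gain as the protease cuts the substrate; inhibitor potency against ADAM10 proteolytic activity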
# [2] = biological target: Disintegrin and metalloproteinase domain-containing protein 17 (Homo sapiens, UniProt P78536); test: ADAM17 protease inhibitors, dose response, counter-screen for ADAM10 exosite inhibitor project, biochemical, quenched FRET substrate (AID 743253)
# Sequence of Disintegrin and metalloproteinase domain-containing protein 17 (P78536 whole entry, the tested form may be a part): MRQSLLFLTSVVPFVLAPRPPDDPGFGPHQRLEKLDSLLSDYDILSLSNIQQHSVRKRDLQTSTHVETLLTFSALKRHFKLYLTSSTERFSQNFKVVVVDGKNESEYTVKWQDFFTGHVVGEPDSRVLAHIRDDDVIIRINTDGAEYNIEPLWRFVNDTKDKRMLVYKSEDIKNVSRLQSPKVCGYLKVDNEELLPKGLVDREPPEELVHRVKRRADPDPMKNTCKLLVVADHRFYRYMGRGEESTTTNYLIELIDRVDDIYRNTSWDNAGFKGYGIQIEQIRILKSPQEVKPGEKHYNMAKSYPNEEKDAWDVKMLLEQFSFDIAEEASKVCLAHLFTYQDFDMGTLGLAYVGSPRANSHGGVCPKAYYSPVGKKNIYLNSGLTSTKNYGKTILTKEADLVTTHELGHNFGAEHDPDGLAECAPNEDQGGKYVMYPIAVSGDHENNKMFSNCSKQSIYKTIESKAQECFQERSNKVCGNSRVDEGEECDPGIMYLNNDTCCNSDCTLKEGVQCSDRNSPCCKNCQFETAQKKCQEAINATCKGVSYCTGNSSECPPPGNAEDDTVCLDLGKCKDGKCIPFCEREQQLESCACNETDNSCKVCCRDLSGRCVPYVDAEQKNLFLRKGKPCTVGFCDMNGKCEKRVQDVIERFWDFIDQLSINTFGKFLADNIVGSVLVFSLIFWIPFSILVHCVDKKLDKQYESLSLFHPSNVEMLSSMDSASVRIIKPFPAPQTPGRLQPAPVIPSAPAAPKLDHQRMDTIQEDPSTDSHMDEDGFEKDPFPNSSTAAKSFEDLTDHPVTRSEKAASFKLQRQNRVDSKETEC
# [3] = Luminescence Cell-Based Dose Retest to Confirm Inhibitors of Cancer Stem Cells. [Related pubchem assays (depositor defined):AID2717, AID2721]; assay type: functional; conditions: Homo sapiens
# [4] = inhibitors of intracellular T. cruzi replication, confirmation, NIH3T3 host cells, beta-gal luminescence (AID 2044); assay type: functional, cell-based;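 also: intracellular parasites grown in NIH/3T3 mouse fibroblasts as host cells; luminescent beta-galactosidase reporter signal from transgenic T. cruzi replicating inside host cells; inhibitors lower the luminescence signal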
# [5] = cytotoxicity toward NIH3T3 fibroblasts, dose response, counter-screen, cell-based, ATP luminescence, mouse fibroblasts (AID 2010); assay type: functional;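 also: cells exposed to compound for about 90 hours before reading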
# [6] = cells; assay type: functional, cell-based
# [7] = biological target: T1, DNA repair protein RAD52 homolog (Homo sapiens, UniProt P43351); assay type: functional, biochemical
# T1 sequence (P43351 whole entry): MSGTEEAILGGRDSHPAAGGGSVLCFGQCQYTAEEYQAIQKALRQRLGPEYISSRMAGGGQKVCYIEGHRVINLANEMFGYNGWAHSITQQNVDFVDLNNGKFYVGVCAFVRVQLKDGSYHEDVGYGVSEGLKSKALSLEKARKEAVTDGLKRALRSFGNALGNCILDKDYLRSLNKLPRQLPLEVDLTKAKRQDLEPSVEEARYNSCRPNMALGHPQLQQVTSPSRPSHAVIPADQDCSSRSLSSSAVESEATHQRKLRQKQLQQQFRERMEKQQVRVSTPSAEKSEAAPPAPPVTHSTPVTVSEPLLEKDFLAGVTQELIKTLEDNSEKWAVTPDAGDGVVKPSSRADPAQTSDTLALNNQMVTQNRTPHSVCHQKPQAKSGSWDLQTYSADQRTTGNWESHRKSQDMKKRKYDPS
# [8] = THP-1 cell cytotoxicity, dose response, cytotoxicity control for non-replicating M. tuberculosis project (AID 489025); assay type: functional
# [9] = Vero E6 cell cytotoxicity, dose response, cytotoxicity control for non-replicating M. tuberculosis project, secondary assay (AID 492998); assay type: functional, VeroE6; conditions: Vero C1008
# [10] = cells; assay type: functional
# [11] = cells; assay type: functional, cell-based; remark: listed apart in the source
# [12] = T. cruzi growth inhibition in host cells, dose response, cell-based, plate reader, dry powder, set 2 (AID 652275); assay type: functional
# [13] = Late stage assay provider results from the probe development effort to identify inhibitors of the Plasmodium falciparum M18 Aspartyl Aminopeptidase (M18AAP): radiolabel-based cell-based dose response assay to identify compounds that inhibit P. falciparum growth in RBCs, Set 2..; assay type: functional
# [14] = biological target: Fructose-bisphosphate aldolase (Mycobacterium tuberculosis, UniProt P9WQA3); test: Fluorescence-based biochemical high throughput dose response assay for inhibitors of the fructose-bisphosphate aldolase (FBA) of M. tuberculosis.; assay type: functional
# Sequence of Fructose-bisphosphate aldolase (P9WQA3 whole entry): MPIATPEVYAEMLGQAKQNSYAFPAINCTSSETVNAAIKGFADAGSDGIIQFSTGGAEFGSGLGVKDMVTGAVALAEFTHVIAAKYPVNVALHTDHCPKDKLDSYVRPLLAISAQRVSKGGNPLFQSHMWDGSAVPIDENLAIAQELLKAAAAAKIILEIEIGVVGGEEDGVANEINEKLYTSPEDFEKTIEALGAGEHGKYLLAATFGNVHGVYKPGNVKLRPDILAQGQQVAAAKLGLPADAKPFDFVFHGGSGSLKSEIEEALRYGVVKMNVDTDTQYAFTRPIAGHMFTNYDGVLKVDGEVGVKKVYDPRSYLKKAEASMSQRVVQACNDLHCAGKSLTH
# [15] = MITF Orthogonal Assay: SK-MEL-5 CTG Assay Measured in Cell-Based System Using Plate Reader - 2084-02_Inhibitor_Dose_DryPowder_Activity_Set7.; assay type: functional
# [16] = MITF: Counter assay: A375 proliferation Measured in Cell-Based System Using Plate Reader - 2084-03_Inhibitor_Dose_DryPowder_Activity_Set8.; assay type: functional; conditions: A-375
# [17] = biological target: Melanin-concentrating hormone receptor 1 (Homo sapiens, UniProt Q99705); test: Fluorescence-based counterscreen for antagonists of the G-protein coupled receptor 7 (GPR7): cell-based high throughput dose response assay to identify antagonists of the melanin-concentrating hormone receptor 1 (MCHR1).; assay type: functional
# Sequence of Melanin-concentrating hormone receptor 1 (Q99705 whole entry): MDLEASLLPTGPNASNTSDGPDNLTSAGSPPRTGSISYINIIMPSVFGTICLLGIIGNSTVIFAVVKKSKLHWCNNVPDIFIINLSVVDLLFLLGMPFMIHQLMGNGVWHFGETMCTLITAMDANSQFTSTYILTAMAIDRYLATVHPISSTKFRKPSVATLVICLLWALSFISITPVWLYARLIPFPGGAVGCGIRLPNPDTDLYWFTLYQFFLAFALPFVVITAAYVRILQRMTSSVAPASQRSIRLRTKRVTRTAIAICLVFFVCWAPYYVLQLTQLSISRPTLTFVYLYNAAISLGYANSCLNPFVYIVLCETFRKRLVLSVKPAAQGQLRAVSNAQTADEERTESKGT
# [18] = biological target: T2, Neuropeptides B/W receptor type 1 (Homo sapiens, UniProt P48145); test: Fluorescence-based dose response cell-based high throughput screening assay to identify antagonists of the G-protein coupled receptor 7 (GPR7). [Related pubchem assays: 1952 (Screening assay (GPR7 antagonists).), 1880 (Summary AID.)]; assay type: functional
# T2 sequence (P48145 whole entry): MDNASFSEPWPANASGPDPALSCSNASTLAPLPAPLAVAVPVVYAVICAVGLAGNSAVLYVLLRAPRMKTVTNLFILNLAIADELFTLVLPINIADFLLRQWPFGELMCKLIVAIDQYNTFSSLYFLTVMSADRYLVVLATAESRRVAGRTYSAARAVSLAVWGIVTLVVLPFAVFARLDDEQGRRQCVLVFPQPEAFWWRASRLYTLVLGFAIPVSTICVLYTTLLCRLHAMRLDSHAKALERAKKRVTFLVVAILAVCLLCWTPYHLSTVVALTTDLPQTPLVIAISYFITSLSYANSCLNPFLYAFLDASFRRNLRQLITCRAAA
# [19] = C. albicans growth with fluconazole, confirmation, fluorescence, retest (AID 2467); assay type: functional, cell-based
# [20] = NIH-3T3 fibroblast cytotoxicity, dose response, cytotoxicity control, cell-based, fluorescence, Alamar Blue, secondary assay (AID 2327); assay type: functional;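 also: NIH-3T3 mouse fibroblasts cultured with fluconazole at 8 µg/mL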
# [21] = biological target: Albumin (Bos taurus, UniProt P02769); test: Counterscreen for inhibitors of T-cell receptor (TCR)-CD3 interaction: Fluorescence-based biochemical high throughput dose response assay to identify inhibitors of T-cell receptor (TCR)-CD3 interaction using a TAMRA-labeled BSA probe.; assay type: functional
# Sequence of Albumin (P02769 whole entry): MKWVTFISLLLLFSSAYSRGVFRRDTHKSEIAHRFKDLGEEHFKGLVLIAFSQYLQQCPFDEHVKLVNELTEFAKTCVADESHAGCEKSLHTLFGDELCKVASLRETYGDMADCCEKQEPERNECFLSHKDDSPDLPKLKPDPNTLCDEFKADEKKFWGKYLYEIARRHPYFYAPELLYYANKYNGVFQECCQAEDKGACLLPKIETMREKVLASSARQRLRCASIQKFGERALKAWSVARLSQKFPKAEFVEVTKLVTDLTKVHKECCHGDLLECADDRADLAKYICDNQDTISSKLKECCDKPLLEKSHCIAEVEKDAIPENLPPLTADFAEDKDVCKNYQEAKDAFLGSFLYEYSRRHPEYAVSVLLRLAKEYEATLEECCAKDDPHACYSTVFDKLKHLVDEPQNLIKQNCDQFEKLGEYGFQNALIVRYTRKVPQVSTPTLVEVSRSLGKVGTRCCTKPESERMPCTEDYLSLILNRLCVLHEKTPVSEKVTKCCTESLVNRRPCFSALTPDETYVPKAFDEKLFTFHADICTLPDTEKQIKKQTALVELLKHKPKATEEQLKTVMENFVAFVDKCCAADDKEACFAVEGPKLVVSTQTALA
# [22] = THP-1 cell cytotoxicity, dose response, cytotoxicity control for Vif-APOBEC3G degradation inhibitor project, THP-1 cells (AID 1117359); assay type: functional; conditions: Human immunodeficiency virus 1, THP-1
# [23] = biological target: T3, Mannose-6-phosphate isomerase (Homo sapiens, UniProt P34949); test: inhibitors of human PMI, primary screen, biochemical, fluorescence intensity, coupled assay (AID 1209)
# T3 sequence (P34949 whole entry): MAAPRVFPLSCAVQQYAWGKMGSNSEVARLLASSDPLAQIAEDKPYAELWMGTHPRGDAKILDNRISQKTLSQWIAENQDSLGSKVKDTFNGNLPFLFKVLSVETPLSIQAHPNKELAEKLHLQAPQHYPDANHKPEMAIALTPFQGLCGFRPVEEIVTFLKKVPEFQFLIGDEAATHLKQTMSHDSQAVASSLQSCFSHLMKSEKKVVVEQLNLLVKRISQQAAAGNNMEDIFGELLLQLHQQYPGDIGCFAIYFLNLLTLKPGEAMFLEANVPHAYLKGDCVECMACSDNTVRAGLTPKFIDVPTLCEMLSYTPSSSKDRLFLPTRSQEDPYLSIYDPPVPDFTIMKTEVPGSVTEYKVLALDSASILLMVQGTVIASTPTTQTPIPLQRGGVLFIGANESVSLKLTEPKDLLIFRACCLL
# [24] = biological target: T3, Mannose-6-phosphate isomerase; test: human PMI inhibitors, high substrate, primary screen, biochemical, fluorescence intensity, high mannose 6-phosphate (AID 1220)
# [25] = biological target: Caspase-8 (Homo sapiens, UniProt Q14790); test: caspase-8 inhibition counter-screen, dose response, selectivity assay for caspase-6 inhibitor project, biochemical, Z-IETD-R110 fluorescence, cherry-picked samples (AID 743294)
# Sequence of Caspase-8 (Q14790 217-374 limits assumed): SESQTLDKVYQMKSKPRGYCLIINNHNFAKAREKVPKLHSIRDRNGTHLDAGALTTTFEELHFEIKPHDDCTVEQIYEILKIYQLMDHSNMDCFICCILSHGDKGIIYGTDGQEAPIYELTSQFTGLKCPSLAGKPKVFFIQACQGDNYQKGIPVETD
# Sequence of Caspase-8 (Q14790 385-479 limits assumed): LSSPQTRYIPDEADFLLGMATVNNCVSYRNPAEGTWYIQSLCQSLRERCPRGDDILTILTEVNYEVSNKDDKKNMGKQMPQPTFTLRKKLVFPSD
# [26] = biological target: T4, Caspase-7 (Homo sapiens, UniProt P55210); test: human caspase-7 inhibitors, dose response, selectivity assay for caspase-6 inhibitor project, biochemical, DEVD-R110 fluorescence, cherry-pick (AID 743295)
# T4 sequence (P55210 whole entry): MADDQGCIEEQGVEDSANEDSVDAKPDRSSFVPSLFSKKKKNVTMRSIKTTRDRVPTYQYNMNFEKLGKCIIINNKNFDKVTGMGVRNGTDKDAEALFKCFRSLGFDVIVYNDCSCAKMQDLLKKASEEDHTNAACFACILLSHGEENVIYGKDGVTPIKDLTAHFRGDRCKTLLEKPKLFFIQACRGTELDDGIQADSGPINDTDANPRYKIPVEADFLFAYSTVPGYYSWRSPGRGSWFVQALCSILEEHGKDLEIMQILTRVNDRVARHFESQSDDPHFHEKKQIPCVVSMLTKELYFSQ
# [27] = biological target: T5, Caspase-6 (Homo sapiens, UniProt P55212); test: human caspase-6 inhibitors, dose response, biochemical, VEID-R110 fluorescence, cherry-pick (AID 720632)
# T5 sequence (P55212 whole entry): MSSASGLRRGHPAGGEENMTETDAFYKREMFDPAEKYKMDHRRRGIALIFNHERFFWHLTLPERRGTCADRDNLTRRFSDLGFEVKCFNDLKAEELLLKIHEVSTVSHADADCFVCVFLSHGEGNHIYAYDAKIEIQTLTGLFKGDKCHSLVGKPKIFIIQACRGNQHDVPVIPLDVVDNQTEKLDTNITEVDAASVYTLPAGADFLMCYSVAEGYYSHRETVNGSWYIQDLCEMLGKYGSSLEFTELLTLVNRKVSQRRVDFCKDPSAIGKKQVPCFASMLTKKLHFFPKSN
# [28] = biological target: Vascular endothelial growth factor receptor 2 (Homo sapiens, UniProt P35968); assay type: functional
# [29] = biological target: Rho-associated protein kinase 1 (Homo sapiens, UniProt Q13464); assay type: functional;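 also: measured within a broad kinome-wide panel profiling many kinases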
# Sequence of Rho-associated protein kinase 1 (Q13464 whole entry): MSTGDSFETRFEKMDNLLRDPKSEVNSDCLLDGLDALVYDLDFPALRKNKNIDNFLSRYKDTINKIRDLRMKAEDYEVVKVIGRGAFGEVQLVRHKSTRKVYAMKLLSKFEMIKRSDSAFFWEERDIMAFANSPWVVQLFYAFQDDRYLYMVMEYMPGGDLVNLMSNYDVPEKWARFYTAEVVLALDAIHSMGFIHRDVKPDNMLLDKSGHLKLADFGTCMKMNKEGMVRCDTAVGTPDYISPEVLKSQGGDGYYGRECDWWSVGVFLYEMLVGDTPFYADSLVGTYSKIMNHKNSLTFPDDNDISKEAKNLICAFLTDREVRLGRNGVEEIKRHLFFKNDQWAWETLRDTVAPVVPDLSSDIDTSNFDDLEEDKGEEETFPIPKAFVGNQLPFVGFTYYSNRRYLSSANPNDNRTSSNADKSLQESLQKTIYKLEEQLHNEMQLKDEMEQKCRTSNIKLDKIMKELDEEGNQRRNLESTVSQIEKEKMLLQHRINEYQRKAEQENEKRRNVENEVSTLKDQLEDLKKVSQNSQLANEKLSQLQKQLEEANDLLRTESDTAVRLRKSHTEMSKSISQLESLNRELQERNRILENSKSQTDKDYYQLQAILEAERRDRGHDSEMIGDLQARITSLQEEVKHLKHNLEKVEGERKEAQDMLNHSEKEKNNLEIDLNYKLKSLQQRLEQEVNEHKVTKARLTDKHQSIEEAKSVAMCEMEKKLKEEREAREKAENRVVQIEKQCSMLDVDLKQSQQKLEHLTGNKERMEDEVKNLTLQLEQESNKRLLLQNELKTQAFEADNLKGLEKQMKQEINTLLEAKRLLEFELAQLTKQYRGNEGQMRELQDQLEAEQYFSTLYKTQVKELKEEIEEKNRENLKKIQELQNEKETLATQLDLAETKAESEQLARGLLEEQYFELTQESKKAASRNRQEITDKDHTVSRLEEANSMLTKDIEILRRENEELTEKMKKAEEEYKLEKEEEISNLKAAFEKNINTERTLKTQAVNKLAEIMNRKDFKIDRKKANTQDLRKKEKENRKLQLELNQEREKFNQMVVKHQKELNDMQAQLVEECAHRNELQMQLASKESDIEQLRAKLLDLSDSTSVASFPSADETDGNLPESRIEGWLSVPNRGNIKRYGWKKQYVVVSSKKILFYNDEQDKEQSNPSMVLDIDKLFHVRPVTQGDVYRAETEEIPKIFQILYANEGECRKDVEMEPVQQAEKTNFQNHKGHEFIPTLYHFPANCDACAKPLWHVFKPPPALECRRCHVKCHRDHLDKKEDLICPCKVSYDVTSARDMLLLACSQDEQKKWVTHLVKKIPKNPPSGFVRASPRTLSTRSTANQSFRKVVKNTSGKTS
# [30] = biological target: fMet-Leu-Phe receptor (Homo sapiens, UniProt P21462); test: FPR ligands, dose response (AID 519); assay type: functional
# Sequence of fMet-Leu-Phe receptor (P21462 whole entry): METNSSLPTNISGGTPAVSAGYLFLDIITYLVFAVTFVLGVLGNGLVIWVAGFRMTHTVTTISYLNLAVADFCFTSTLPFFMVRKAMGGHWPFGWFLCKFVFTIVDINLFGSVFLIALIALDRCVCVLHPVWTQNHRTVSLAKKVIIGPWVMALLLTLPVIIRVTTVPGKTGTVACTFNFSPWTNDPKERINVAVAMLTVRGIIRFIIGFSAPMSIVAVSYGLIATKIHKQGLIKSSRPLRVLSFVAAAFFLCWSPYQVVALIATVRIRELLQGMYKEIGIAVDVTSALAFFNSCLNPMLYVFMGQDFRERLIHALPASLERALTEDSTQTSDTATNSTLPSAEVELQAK
# [31] = biological target: T6, Estrogen receptor (Homo sapiens, UniProt P03372);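 also: potency for inhibiting coactivator peptide recruitment to the receptor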
# T6 sequence (P03372 whole entry): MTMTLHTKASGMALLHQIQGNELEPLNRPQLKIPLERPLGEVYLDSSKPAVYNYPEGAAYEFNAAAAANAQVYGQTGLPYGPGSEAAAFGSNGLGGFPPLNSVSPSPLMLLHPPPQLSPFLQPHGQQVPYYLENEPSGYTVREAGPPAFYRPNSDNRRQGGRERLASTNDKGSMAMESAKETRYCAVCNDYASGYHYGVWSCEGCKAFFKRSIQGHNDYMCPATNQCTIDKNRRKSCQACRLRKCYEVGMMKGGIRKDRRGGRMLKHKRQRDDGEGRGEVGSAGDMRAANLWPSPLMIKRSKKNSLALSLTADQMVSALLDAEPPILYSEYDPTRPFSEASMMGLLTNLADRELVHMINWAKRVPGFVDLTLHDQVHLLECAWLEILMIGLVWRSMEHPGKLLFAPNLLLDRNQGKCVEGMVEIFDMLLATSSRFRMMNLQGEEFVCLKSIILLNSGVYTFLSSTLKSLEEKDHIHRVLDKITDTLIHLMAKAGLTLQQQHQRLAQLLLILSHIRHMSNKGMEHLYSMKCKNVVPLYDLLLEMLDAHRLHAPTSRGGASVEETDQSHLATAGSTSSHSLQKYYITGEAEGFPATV
# [32] = biological target: G-protein coupled receptor 55 (Homo sapiens, UniProt Q9Y2T6); test: GPR55 antagonists blocking LPI-driven arrestin recruitment, primary screen, imaging, U2OS, beta-arrestin-GFP, LPI agonist (AID 2013); assay type: functional;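 also: antagonist potency measured as reduced agonist-driven arrestin aggregation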
# Sequence of G-protein coupled receptor 55 (Q9Y2T6 whole entry): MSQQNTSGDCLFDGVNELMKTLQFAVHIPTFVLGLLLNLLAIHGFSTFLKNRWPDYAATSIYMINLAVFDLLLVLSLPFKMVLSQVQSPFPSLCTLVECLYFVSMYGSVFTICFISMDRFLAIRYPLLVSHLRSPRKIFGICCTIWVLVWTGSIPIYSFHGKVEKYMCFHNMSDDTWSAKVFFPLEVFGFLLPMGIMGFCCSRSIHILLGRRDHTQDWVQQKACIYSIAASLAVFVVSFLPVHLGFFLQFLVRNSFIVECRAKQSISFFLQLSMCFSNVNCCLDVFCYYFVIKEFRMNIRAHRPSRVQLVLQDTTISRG
# [33] = biological target: T7, Protein Tat (Human immunodeficiency virus type 1 group M subtype B (isolate HXB2)(HIV-1), UniProt P04608); assay type: functional;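 also: tat binding to TAR RNA read out by fluorescence polarization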
# T7 sequence (P04608 whole entry): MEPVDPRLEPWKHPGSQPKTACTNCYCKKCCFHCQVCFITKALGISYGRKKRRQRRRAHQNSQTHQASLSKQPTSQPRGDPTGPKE
smiles,measurement,setting,value
OC(COCC(F)(F)C(F)(F)C(F)(F)C(F)F)Cn1c2ccccc2c2ccccc21 (configuration not stated),IC50,[1],> 7.73 µM (active)
same,IC50,[2],> 69.5 µM (inactive)
same,AC50,[3],2.9 µM (active)
same,EC50,[4],1.71 µM (active)
same,EC50,[5],> 60 µM (inconclusive)
Cc1cc(N/N=C/c2ccccc2O)c2ccccc2n1,EC50,[6],> 29.9 µM (inactive)
same,AC50,[7],5.36 µM (active)
same,CC50,[8],25.6 µM (active)
same,CC50,[9],17.6 µM (active)
same,IC50,[10],7.92 µM (active)
same,IC50,[11],> 29.9 µM (inactive)
CC(C)N1C[C@H](C)[C@@H](CN(C)Cc2ccc(Oc3ccccc3)cc2)Oc2c(cccc2-c2cn(-c3ccncc3)nn2)C1=O,AC50,[12],20.4 nM (active)
C=CCC[C@H](Cc1ccc(F)cc1)C(=O)OC[C@@H](Cc1c[nH]c2ccccc12)NC(=O)[C@@H](CC=C)CC(=O)N(CCO)Cc1ccccc1,IC50,[1],> 69.5 µM (inactive)
same,IC50,[2],> 69.5 µM (inactive)
same,AC50,[3],4.62 µM (active)
Oc1cccc(CCNc2ccnc3ccccc23)c1O,IC50,[13],2.7 µM (active)
COc1ccccc1N1C(=O)NC(=O)/C(=C/c2ccc3c4c(cccc24)CC3)C1=O,IC50,[14],2.23 µM (active)
O=C1C=C(Nc2ccc3ccccc3c2)C(=O)c2ccccc21,AC50,[15],1.65 µM (active)
same,AC50,[16],49.4 µM (active)
CN(C(=O)CN1C(=O)C2C3CC(C(Br)C3Br)C2C1=O)C1CCCCC1 (configuration not stated),IC50,[17],> 43.8 µM (not active)
same,IC50,[18],13.4 µM (not active)
Cc1ccc(C(=O)NNC(=O)c2cc3ccccc3cc2O)cc1,EC50,[19],3.16 µM (active)
same,EC50,[20],> 160 µM (inactive)
same,IC50,[21],> 94.1 µM (inactive)
CC(=O)NN1C(=O)/C(=C\c2ccc(Br)o2)SC1=S,CC50,[22],> 40 µM (active)
Cc1ccc(C)c(N(C(=O)c2snc(C(N)=O)c2N)C(C(=O)NCC2CCCO2)c2cccs2)c1 (configuration not stated),IC50,[14],> 1.11 µM (active)
NCCNc1c2ccccc2nc2ccccc12,IC50,[13],0.5 µM (active)
Cn1ncc2c(NNC(=O)c3ccc(Cl)cc3Cl)ncnc21,IC50,[23],> 50 µM (not active)
same,IC50,[24],> 50 µM (not active)
Cc1cccc(-c2ccc([C@H]3[C@H](CO)N4CCCCN(C(=O)c5ccncc5)C[C@@H]34)cc2)c1,AC50,[12],2460 nM (active)
Oc1cc(O)cc(C=Cc2ccc(O)c(O)c2)c1,AC50,[25],> 70 µM (inactive)
same,AC50,[26],> 70 µM (inactive)
same,AC50,[27],1.2 µM (active)
same,Ki,[28],> 2.51 µM (inactive)
same,Ki,[29],2.51 µM (active)
CCCCn1c(NC(=O)CC)c(C#N)c2nc3ccccc3nc21,Ki,[30],24.2 µM (inactive)
same,IC50,[31],23.4 µM (active)
same,IC50,[32],1.55 µM (active)
COc1ccc(NC(=O)CN(C)C(=O)c2cccc(-n3cccc3)c2)cc1,AC50,[25],61.2 µM (active)
same,AC50,[26],> 70 µM (inactive)
same,AC50,[27],4.5 µM (active)
same,IC50,[33],> 100 µM (active)
